Values joined by “and” are separate entries in the source; they are usually repeats but may differ in a detail not shown here. Equal entries are not always repeated.
Biological target: SARS-CoV-2 Mpro (Severe acute respiratory syndrome coronavirus 2, UniProt P0DTD1)
Assay: biochemical
Details: for inhibition at 20 µM: read-out: % inhibition at 20 μM; for IC50: IC50, enzyme 100 nM, substrate 20 μM, 10 min preincubation, pH 6.5; for fold less active than the other (more active) diastereomer: between the two diastereomers of the same compound

For `C=Cc1ccc(N(C(=O)c2ccco2)C(C(=O)NCc2ccccc2)c2cccnc2)cc1` (stereo not drawn) [Compound 3, N-(2-(Benzylamino)-2-oxo-1-(pyridin-3-yl)ethyl)-N-(4-vinylphenyl)furan-2-carboxamide], the inhibition at 20 µM was 26%.

With `C=CC(=O)N(c1ccc(C(C)(C)C)cc1)C(C(=O)NC1CCCCC1)c1cccnc1` (stereo not drawn) [Compound 29, N-(4-(tert-Butyl)phenyl)-N-(2-(cyclohexylamino)-2-oxo-1-(pyridin-3-yl)ethyl)acrylamide] the inhibition at 20 µM was 30%.

`CC(C)(C)NC(=O)C(c1cccnc1)N(C(=O)CCl)c1cccc(NC(=O)C(Cl)Cl)c1` (stereo not drawn) [Compound 19, N-(tert-Butyl)-2-(2-chloro-N-(3-(2,2-dichloroacetamido)phenyl)acetamido)-2-(pyridin-3-yl)acetamide] showed an IC50 of 2200 ± 510 nM.

For `CC(C)(C)NC(=O)C(c1cccnc1)N(C(=O)C(=O)Cc1ccccc1)c1ccc(C(C)(C)C)cc1` (stereo not drawn) [Compound 31, N-(4-(tert-Butyl)phenyl)-N-(2-(tert-butylamino)-2-oxo-1-(pyridin-3-yl)ethyl)-2-oxo-3-phenylpropanamide], the “inhibitory activity against Mpro (in words)” value was “inactive” and the inhibition at 20 µM was 0%.

`CC(C)(C)c1ccc(N(C(=O)C2CO2)C(C(=O)NCc2ccccc2)c2cccnc2)cc1` [(R, R)- and (S, S)-42, N-(2-(Benzylamino)-2-oxo-1-(pyridin-3-yl)ethyl)-N-(4-(tert-butyl)phenyl)oxirane-2-carboxamide] showed an inhibition at 20 µM of 45%.

With `CCCCNC(=O)C(c1cccnc1)N(C(=O)CCl)c1ccc(C(C)(C)C)cc1` (stereo not drawn) [Compound 24, N-Butyl-2-(N-(4-(tert-butyl)phenyl)-2-chloroacetamido)-2-(pyridin-3-yl)acetamide] the IC50 was 2400 ± 300 nM.

`Nc1ccc(N(C(=O)c2ccco2)C(C(=O)NCc2ccccc2)c2cccnc2)cc1` (stereo not drawn) [Compound 11, N-(4-Aminophenyl)-N-(2-(benzylamino)-2-oxo-1-(pyridin-3-yl)ethyl)furan-2-carboxamide] showed an inhibition at 20 µM of 0%.

`CC(=O)OCC(=O)N(c1ccc(C(C)(C)C)cc1)C(C(=O)NC(C)(C)C)c1cccnc1` (stereo not drawn) [Compound 33, 2-((4-(tert-Butyl)phenyl)(2-(tert-butylamino)-2-oxo-1-(pyridin-3-yl)ethyl)amino)-2-oxoethyl acetate] showed an inhibition at 20 µM of 0%.

`CC(C)(C)NC(=O)C(c1cccnc1)N(C(=O)C1CO1)c1ccc(C(C)(C)C)cc1` [(R, R)- and (S, S)-38, N-(4-(tert-Butyl)phenyl)-N-(2-(tert-butylamino)-2-oxo-1-(pyridin-3-yl)ethyl)oxirane-2-carboxamide] showed an inhibition at 20 µM of 21%.

`O=C(CCl)Nc1ccc(N(C(=O)c2ccco2)C(C(=O)NCc2ccccc2)c2cccnc2)cc1` (stereo not drawn) [Compound 5, N-(2-(Benzylamino)-2-oxo-1-(pyridin-3-yl)ethyl)-N-(4-(2-chloroacetamido)phenyl)furan-2-carboxamide] showed an IC50 of roughly 20000 nM and an inhibition at 20 µM of 47%.

For `CC(C)(C)c1ccc(N(C(=O)C2CO2)C(C(=O)NCc2ccccc2)c2cccnc2)cc1` [(R, S)- and (S, R)-42, N-(2-(Benzylamino)-2-oxo-1-(pyridin-3-yl)ethyl)-N-(4-(tert-butyl)phenyl)oxirane-2-carboxamide], the IC50 was 1600 ± 320 nM.

For `CC(C)(C)c1ccc(N(C(=O)C2CO2)C(C(=O)NC2CCCCC2)c2cccnc2)cc1` [(R, R)- and (S, S)-30, N-(4-(tert-Butyl)phenyl)-N-(2-(cyclohexylamino)-2-oxo-1-(pyridin-3-yl)ethyl)oxirane-2-carboxamide], the IC50 was 9900 ± 1600 nM and the “fold less active than the other (more active) diastereomer” value was 13 ×.

`C=CC(=O)Nc1ccc(N(C(=O)c2ccco2)C(C(=O)NCc2ccccc2)c2cccnc2)cc1` (stereo not drawn) [Compound 7, N-(4-Acrylamidophenyl)-N-(2-(benzylamino)-2-oxo-1-(pyridin-3-yl)ethyl)furan-2-carboxamide] was tested, and the inhibition at 20 µM was 22%.

Compound `CC1OC1C(=O)N(c1ccc(C(C)(C)C)cc1)C(C(=O)NC(C)(C)C)c1cccnc1` [(R, R, S)- and (S, S, R)-39, N-(4-(tert-Butyl)phenyl)-N-(2-(tert-butylamino)-2-oxo-1-(pyridin-3-yl)ethyl)-3-methyloxirane-2-carboxamide] has an IC50 of 5320 ± 640 nM.

`O=C(NCc1ccccc1)C(c1cccnc1)N(C(=O)c1ccco1)c1ccc(-c2ccccc2)cc1` (stereo not drawn) [Compound 1, N-([1,1’-Biphenyl]-4-yl)-N-(2-(benzylamino)-2-oxo-1-(pyridin-3-yl)ethyl)furan-2-carboxamide] gave an IC50 of 740 ± 70 nM.

For `CC1OC1C(=O)N(c1ccc(C(C)(C)C)cc1)C(C(=O)NC1CCCCC1)c1cccnc1` [(R, R, S)- and (S, S, R)-35, N-(4-(tert-Butyl)phenyl)-N-(2-(cyclohexylamino)-2-oxo-1-(pyridin-3-yl)ethyl)-3-methyloxirane-2-carboxamide], the “fold less active than the other (more active) diastereomer” value was ~ 10 × and the inhibition at 20 µM was 42%.

Compound `O=C(Nc1cccc(N(C(=O)c2ccco2)C(C(=O)NCc2ccccc2)c2cccnc2)c1)C(Cl)Cl` (stereo not drawn) [Compound 9, N-(2-(Benzylamino)-2-oxo-1-(pyridin-3-yl)ethyl)-N-(3-(2,2-dichloroacetamido)phenyl)furan-2-carboxamide] has an inhibition at 20 µM of 20%.

`Nc1cccc(N(C(=O)c2ccco2)C(C(=O)NCc2ccccc2)c2cccnc2)c1` (stereo not drawn) [Compound 12, N-(3-Aminophenyl)-N-(2-(benzylamino)-2-oxo-1-(pyridin-3-yl)ethyl)furan-2-carboxamide] showed an inhibition at 20 µM of 18%.

`CC(C)(C)c1ccc(N(C(=O)CCl)C(C(=O)NCc2ccccc2)c2cccnc2)cc1` (stereo not drawn) [Compound 23, N-Benzyl-2-(N-(4-(tert-butyl)phenyl)-2-chloroacetamido)-2-(pyridin-3-yl)acetamide] was tested, and the inhibition at 20 µM was 41%.

With `O=C(CCl)Nc1cccc(N(C(=O)c2ccco2)C(C(=O)NCc2ccccc2)c2cccnc2)c1` (stereo not drawn) [Compound 8, N-(2-(Benzylamino)-2-oxo-1-(pyridin-3-yl)ethyl)-N-(3-(2-chloroacetamido)phenyl)furan-2-carboxamide] the IC50 was roughly 20000 nM and the inhibition at 20 µM was 47%.

`CC(C)(C)NC(=O)C(c1cccnc1)N(C(=O)CCl)c1ccc(N)cc1` (stereo not drawn) [Compound 20, N-(4-Aminophenyl)-N-(2-(tert-butylamino)-2-oxo-1-(pyridin-3-yl)ethyl)-2-chloroacetamide] showed an inhibition at 20 µM of 12%.

With `CC(C)(C)NC(=O)C(c1cccnc1)N(C(=O)CCl)c1cccc(NC(=O)CCl)c1` (stereo not drawn) [Compound 18, N-(tert-Butyl)-2-(2-chloro-N-(3-(2-chloroacetamido)phenyl)acetamido)-2-(pyridin-3-yl)acetamide] the IC50 was 3600 ± 600 nM.

`CC(C)(C)NC(=O)C(c1cccnc1)N(C(=O)C1OC1(C)C)c1ccc(C(C)(C)C)cc1` (stereo not drawn) [Compound 40, N-(4-(tert-Butyl)phenyl)-N-(2-(tert-butylamino)-2-oxo-1-(pyridin-3-yl)ethyl)-3,3-dimethyloxirane-2-carboxamide] showed an inhibition at 20 µM of 31%.

With `CC(C)(C)NC(=O)C(c1cccnc1)N(C(=O)C1CO1)c1ccc(C(C)(C)C)cc1` [(R, S)- and (S, R)-38, N-(4-(tert-Butyl)phenyl)-N-(2-(tert-butylamino)-2-oxo-1-(pyridin-3-yl)ethyl)oxirane-2-carboxamide] the IC50 was 1200 nM and 1240 nM.

Compound `O=C(NCc1ccccc1)C(c1cccnc1)N(C(=O)c1ccco1)c1ccc(C2CO2)cc1` (stereo not drawn) [Compound 2, N-(2-(Benzylamino)-2-oxo-1-(pyridin-3-yl)ethyl)-N-(4-(oxiran-2-yl)phenyl)furan-2-carboxamide] has an inhibition at 20 µM of 18%.

Reference: publication PMC10922772 (ACS infectious diseases, 2024)
